US6599754B2, “Biphasic reaction vessel and methods of use” (University of Rochester, priority 2000, dated 2003)

Legend:
[1] = tested on: trypsin; assay: Dynamic library selection experiment against trypsin in the biphasic vessel (LC-MS of extracted ions); conditions: 121 compound library, trypsin 43 μM and 257 μM vs trypsin free control, 18 hours incubation; not verified by binding or inhibition constant
Description: Selection experiments: 1,4-diacetoxycyclopent-2-ene, methoxyphenylacetic acid, hydrocinnamic acid, isovaleric acid, 4-pentynoic acid, cyclopentane carboxylic acid, cis-pinonic acid, tetrahydro-2-furoic acid, 2 -phenylpropionic acid, 2-cyclopentene-1-acetic acid, (−)-methoxyacetic acid and triethyl phosphite were weighed in 4 mL vials in the open atmosphere. Palladium tetrakistriphenylphosphine was added to the vial containing triethylphosphite under a nitrogen atmosphere inside a glove box. The reagents were diluted with freshly distilled methylene chloride under the nitrogen atmosphere. Stock solutions of 1,4 -diacetoxycyclopent-2-ene (2 M), methoxyphenylacetic acid (1.8 M), hydrocinnamic acid (1.8 M), isovaleric acid (1.8 M), 4-pentynoic acid (1.8 M), cyclopentane carboxylic acid (1.8 M), cis-pinonic acid (1.8 M), tetrahydro-2-furoic acid (1.8 M), 2-phenylpropionic acid (1.8 M), 2-cyclopentene-1-acetic acid (1.8 M), (−)-methoxyacetic acid (1.8 M) and palladium tetrakistriphenylphosphine (90 mM) with triethyl phosphite (360 mM) were prepared. An aliquot (611 μL) was removed from each of the ten acid stock solutions, added to a pear shaped flask, and evaporated to dryness. […]
Organic and aqueous samples were analyzed by electrospray LC-MS in positive ionization mode using an acetonitrile: water 1% trifluoroacetic acid gradient elution (30% CH3CN—90%). […]

[2] = Cellulose membrane permeability and partitioning between methylene chloride and water, analysed by LC/MS; assay type: physicochemical; conditions: for transport across cellulose membrane from organic to aqueous layer: LC/MS vial covered with cellulose membrane, methylene chloride / water; for solvent preference from relative LC/MS intensities of the two layers: methylene chloride in LC/MS vial, cellulose membrane, immersed in deionized water for twenty-four hours
Description: One of the key components to this system is the physical separation between the organic chemistry and the biomolecular receptor. As a simple test, starting material was dissolved in methylene chloride at reaction concentration in an LC/MS vial, the vial covered with a cellulose membrane and immersed in glass-distilled, deionized water for twenty-four hours (FIGS. 10A-B). The experiment was analyzed by LC/MS.
Furthermore, enough of the compound is present to detect by LC/MS without having to concentrate the sample.

Row | SMILES | correlation of amount of compound (ion intensity) with presence of trypsin [1] | transport across cellulose membrane from organic to aqueous layer [2] | solvent preference from relative LC/MS intensities of the two layers [2]
1 | CC(=O)OC1C=CC(OC(=O)CC2C=CCC2)C1 (stereo not drawn) [1-acetoxy-4-(2-cyclopentene-1-acetoxy)cyclopent-2-ene] | strong correlation |  | 
2 | CC(=O)OC1C=CC(OC(C)=O)C1 (stereo not drawn) [1,4-diacetoxycyclopent-2-ene] |  | sufficient ability to undergo membrane transport | organic preference
3 | COC(C(=O)O)c1ccccc1 (stereo not drawn) [methoxyphenylacetic acid] |  | sufficient ability to undergo membrane transport | aqueous preference
4 | COC(C(=O)OC1C=CC(OC(C)=O)C1)c1ccccc1 (stereo not drawn) [1-acetoxy-4-(methoxyphenylacetoxy)cyclopent-2-ene] |  | present at thirteen minutes in the aqueous layer | 
